The text below walks through data of PubChem BioAssay AID1590 (NINDS Approved Drug Screening Program, 2009).

Molecules are shown by their SMILES. Records with an inconclusive call do not appear.

This assay has as its system PC12 inducible Htt-N63-148Q toxicity rescue. Nature of the assay: rescue from Htt-N63-148Q induced toxicity, dose response, PC12 cells, inducible expression, ROSShtt (AID 1590).
In general, EC50 refers to the concentration at which the effect is half-maximal. Regarding `CN(C)[C@@H]1C(=O)C(C(N)=O)=C(O)[C@@]2(O)C(=O)C3=C(O)c4c(O)ccc(Cl)c4[C@@H](O)[C@H]3C[C@@H]12`, the 50% effective concentration (EC50) was 1000 nM.

Turning to `CC(C)NCC(O)c1ccc(O)c(O)c1` (stereo unspecified), the EC50 was 15000 nM.

For the compound `C=C1c2cccc(O)c2C(O)=C2C(=O)[C@]3(O)C(O)=C(C(N)=O)C(=O)[C@@H](N(C)C)[C@@H]3[C@@H](O)[C@H]12`, the concentration giving a half-maximal response (EC50) was 10 nM.

Turning to `O=C(O)C1CCCNC1` (stereo unspecified), the EC50 is 10000 nM.

As to `CN(C)[C@@H]1C(=O)C(C(N)=O)=C(O)[C@@]2(O)C(=O)C3=C(O)c4c(O)cccc4[C@@](C)(O)[C@H]3C[C@@H]12`, the EC50 was 100 nM.

As for `CCN(Cc1ccncc1)C(=O)C(CO)c1ccccc1` (stereo unspecified), the EC50 is 10 nM.

For `C=C1c2c(Cl)ccc(O)c2C(O)=C2C(=O)[C@]3(O)C(O)=C(C(N)=O)C(=O)[C@@H](N(C)C)[C@@H]3[C@@H](O)[C@H]12`, the EC50 was 10 nM.

With `N[C@H](C(=O)O)[C@@H]1CC(Cl)=NO1`, the concentration giving a half-maximal response (EC50) is 10000 nM.

Regarding `CCCNCC(O)COc1ccccc1C(=O)CCc1ccccc1` (stereo unspecified), the EC50 is 10000 nM.

Regarding `COc1c(C)c2c(c(O)c1C/C=C(\C)CCC(=O)O)C(=O)OC2`, the concentration for a half-maximal effect (EC50) was 10000 nM.

With `CN(C)[C@@H]1C(=O)C(C(N)=O)=C(O)[C@@]2(O)C(=O)C3=C(O)c4c(O)cccc4[C@@](C)(O)[C@H]3[C@H](O)[C@@H]12`, the EC50 was 1000 nM.
